Data taken from patent publication US9499519B2, “Fused pyrimidine compounds and use thereof” (Medivation Technologies, Inc., priority 2012, dated 2016).
Like-named read-outs stand apart in the source and are kept apart here.

Legend:
[1] = target: Trk A (Homo sapiens, UniProt P04629); experiment: HotSpot kinase assay: Trk A; assay type: biochemical; conditions: 100 nM compound, read-out: % Enzyme Inhibition @ 100 nM Trk A
Experimental: Kinase assays were performed using additional compounds against a panel of 3 kinases: Trk A; Trk B; and Trk C. Each compound was tested at a concentration of 0.1 μM in single duplicate mode against the 3 kinases. Compounds were prepared as 10 mM stock solutions in DMSO prior to use in the assay. […] IC50 values and curve fits were obtained using Prism (GraphPad Software). […]
The screening was performed using the “HotSpot” assay platform. The assay measures the conversion of a peptide substrate to ^33P-labelled phosphorylated product. Briefly, specific kinase/substrate pairs along with required cofactors were prepared in reaction buffer. Specifically, the substrate was prepared in reaction buffer (20 mM Hepes, pH 7.5; 10 mM MgCl2; 1 mM EGTA; 0.02% Brij35; 0.02 mg/mL BSA; 0.1 mM Na3VO4; 2 mM DTT; 1% DMSO), followed by delivery of any required cofactor to the resulting substrate solution. The corresponding kinase was delivered into the substrate solution and the reaction mixture was mixed gently. Compound was delivered into the reaction mixture, followed 15-20 minutes later by addition of a mixture of ATP (Sigma, St. Louis Mo.) and ^33P ATP (specific activity 0.01 μCi/μL final; Perkin Elmer, Waltham, Mass.) to a final concentration of 10 μM-30 μM to initiate the reaction. Reactions were carried out at room temperature for 120 minutes, followed by spotting of the reactions onto P81 ion exchange filter paper (Whatman #3698-915; Whatman Inc., Piscataway, N.J.). Unbound phosphate was removed by extensive washing of filters in 0.75% phosphoric acid. […] The percent of enzyme inhibition was calculated based on the percent of remaining kinase activity.

[2] = target: Trk B (Homo sapiens, UniProt Q16620); experiment: HotSpot kinase assay: Trk B; assay type: biochemical; conditions: 100 nM compound
Experimental: (§1) Each compound was tested at a concentration of 0.1 μM in single duplicate mode against the 3 kinases. Compounds were prepared as 10 mM stock solutions in DMSO prior to use in the assay. […] IC50 values and curve fits were obtained using Prism (GraphPad Software).
(§2) The screening was performed using the “HotSpot” assay platform. The assay measures the conversion of a peptide substrate to ^33P-labelled phosphorylated product. Briefly, specific kinase/substrate pairs along with required cofactors were prepared in reaction buffer. Specifically, the substrate was prepared in reaction buffer (20 mM Hepes, pH 7.5; 10 mM MgCl2; 1 mM EGTA; 0.02% Brij35; 0.02 mg/mL BSA; 0.1 mM Na3VO4; 2 mM DTT; 1% DMSO), followed by delivery of any required cofactor to the resulting substrate solution. The corresponding kinase was delivered into the substrate solution and the reaction mixture was mixed gently. Compound was delivered into the reaction mixture, followed 15-20 minutes later by addition of a mixture of ATP (Sigma, St. Louis Mo.) and ^33P ATP (specific activity 0.01 μCi/μL final; Perkin Elmer, Waltham, Mass.) to a final concentration of 10 μM-30 μM to initiate the reaction. […] The percent of enzyme inhibition was calculated based on the percent of remaining kinase activity.

[3] = target: Trk C (Homo sapiens, UniProt Q16288); experiment: HotSpot kinase assay: Trk C; assay type: biochemical; conditions: 100 nM compound, HotSpot
Experimental: as §1, §2
Kinase assays were performed using additional compounds against a panel of 4 kinases: AXL; c-Met; c-Mer; and Trk C. Each compound was tested at a concentration of […] in single duplicate mode against the 4 kinases. Compounds were prepared as 10 mM stock solutions in DMSO prior to use in the assay. […] IC50 values and curve fits were obtained using Prism (GraphPad Software).

[4] = system: Akt phosphorylation induced by IGF-1R; experiment: Western blot analysis of Akt phosphorylation induced by IGF-1 in HT-29 cells; assay type: cell-based, Human; conditions: for Levels of phosphorylated AKT in treated cells (pAKT/actin): HT-29 cells, IGF-1; for p-AKT relative to levels with 0.1 nM compound: Table B2 lower part; for Normalized phosphorylated AKT (relative to actin) levels relative to 0.1 nM compound treatment: Table B2 upper part
Summary of the method: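 HT-29 cells grown 24 h in DME/F12 with 10% FBS, serum-starved 24 h, then exposed 2 h to compound at 0.1, 1, 10 or 100; controls received DMSO or 10 ng/mL IGF-1. Lysate soluble fractions quantified by BCA before western blotting for phospho-Akt.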

[5] = target: T1, IGF-1R (Homo sapiens, UniProt P08069); experiment: In vitro IGF-1R enzymatic assay (ADP-Glo kinase assay); assay type: biochemical; conditions: activated IGF-1R, 30 nM; for % Inh @ 30 nM (N1) / % Inh @ 30 nM (N2): 0.03 µM
T1 construct: purchased Millipore 14-802
Experimental: (§3) IC50 values of the compounds of the invention against IGF-1R and IR were measured in vitro using an ADP-Glo kinase assay Kit (Promega). […] Kinase reactions in both assays were conducted at 30° C. for 20 min with increasing concentrations of compounds of the invention.
Additional compounds of the invention were screened against activated IGF-1R.

[6] = target: T2, IR (Homo sapiens, UniProt P06213); experiment: In vitro IR enzymatic assay (ADP-Glo kinase assay); assay type: biochemical; conditions: activated IR, 30 nM; for % Inh @ 30 nM (N1) / % Inh @ 30 nM (N2): 0.03 µM
T2 construct: purchased Millipore 14-803
Experimental: as §3
Additional compounds of the invention were screened against activated IR.

[7] = N1, read-out: % Inh @ 30 nM (N1)
[8] = N2, read-out: % Inh @ 30 nM (N2)
[9] = average, read-out: % Inh @ 30 nM Avg

T1 sequence (P08069 31-1367): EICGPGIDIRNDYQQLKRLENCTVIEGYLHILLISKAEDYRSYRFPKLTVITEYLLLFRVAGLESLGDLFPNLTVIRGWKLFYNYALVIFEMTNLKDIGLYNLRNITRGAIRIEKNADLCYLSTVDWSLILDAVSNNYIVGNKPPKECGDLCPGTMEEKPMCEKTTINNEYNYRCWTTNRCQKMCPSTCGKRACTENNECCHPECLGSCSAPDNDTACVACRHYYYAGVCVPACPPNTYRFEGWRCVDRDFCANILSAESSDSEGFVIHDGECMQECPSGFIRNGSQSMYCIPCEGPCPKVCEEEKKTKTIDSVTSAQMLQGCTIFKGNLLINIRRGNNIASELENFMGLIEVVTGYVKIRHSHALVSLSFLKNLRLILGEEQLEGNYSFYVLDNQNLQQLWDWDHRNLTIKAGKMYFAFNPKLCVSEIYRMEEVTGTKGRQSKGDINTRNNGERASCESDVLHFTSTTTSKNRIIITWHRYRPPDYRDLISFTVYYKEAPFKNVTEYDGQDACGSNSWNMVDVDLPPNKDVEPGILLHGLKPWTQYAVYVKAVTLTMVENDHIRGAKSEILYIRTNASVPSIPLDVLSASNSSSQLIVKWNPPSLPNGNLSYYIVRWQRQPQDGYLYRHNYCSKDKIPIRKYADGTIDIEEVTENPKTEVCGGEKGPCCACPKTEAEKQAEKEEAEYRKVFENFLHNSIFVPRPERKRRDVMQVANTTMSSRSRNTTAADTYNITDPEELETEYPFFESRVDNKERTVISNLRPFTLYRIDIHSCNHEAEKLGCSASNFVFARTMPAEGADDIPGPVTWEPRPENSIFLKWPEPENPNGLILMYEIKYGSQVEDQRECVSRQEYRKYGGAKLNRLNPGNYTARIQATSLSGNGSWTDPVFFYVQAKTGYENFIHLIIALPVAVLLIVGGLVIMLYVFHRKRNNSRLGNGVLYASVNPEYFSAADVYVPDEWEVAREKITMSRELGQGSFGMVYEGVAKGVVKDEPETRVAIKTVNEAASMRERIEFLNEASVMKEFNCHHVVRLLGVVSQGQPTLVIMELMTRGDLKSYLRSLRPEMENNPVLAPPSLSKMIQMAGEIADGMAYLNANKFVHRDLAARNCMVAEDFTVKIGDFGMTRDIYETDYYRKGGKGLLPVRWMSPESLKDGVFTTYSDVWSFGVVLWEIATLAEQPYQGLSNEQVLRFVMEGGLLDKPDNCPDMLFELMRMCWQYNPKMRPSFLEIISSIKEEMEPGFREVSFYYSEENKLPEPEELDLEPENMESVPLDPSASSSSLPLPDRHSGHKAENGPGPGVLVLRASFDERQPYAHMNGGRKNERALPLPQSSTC
T2 sequence (P06213 28-1382): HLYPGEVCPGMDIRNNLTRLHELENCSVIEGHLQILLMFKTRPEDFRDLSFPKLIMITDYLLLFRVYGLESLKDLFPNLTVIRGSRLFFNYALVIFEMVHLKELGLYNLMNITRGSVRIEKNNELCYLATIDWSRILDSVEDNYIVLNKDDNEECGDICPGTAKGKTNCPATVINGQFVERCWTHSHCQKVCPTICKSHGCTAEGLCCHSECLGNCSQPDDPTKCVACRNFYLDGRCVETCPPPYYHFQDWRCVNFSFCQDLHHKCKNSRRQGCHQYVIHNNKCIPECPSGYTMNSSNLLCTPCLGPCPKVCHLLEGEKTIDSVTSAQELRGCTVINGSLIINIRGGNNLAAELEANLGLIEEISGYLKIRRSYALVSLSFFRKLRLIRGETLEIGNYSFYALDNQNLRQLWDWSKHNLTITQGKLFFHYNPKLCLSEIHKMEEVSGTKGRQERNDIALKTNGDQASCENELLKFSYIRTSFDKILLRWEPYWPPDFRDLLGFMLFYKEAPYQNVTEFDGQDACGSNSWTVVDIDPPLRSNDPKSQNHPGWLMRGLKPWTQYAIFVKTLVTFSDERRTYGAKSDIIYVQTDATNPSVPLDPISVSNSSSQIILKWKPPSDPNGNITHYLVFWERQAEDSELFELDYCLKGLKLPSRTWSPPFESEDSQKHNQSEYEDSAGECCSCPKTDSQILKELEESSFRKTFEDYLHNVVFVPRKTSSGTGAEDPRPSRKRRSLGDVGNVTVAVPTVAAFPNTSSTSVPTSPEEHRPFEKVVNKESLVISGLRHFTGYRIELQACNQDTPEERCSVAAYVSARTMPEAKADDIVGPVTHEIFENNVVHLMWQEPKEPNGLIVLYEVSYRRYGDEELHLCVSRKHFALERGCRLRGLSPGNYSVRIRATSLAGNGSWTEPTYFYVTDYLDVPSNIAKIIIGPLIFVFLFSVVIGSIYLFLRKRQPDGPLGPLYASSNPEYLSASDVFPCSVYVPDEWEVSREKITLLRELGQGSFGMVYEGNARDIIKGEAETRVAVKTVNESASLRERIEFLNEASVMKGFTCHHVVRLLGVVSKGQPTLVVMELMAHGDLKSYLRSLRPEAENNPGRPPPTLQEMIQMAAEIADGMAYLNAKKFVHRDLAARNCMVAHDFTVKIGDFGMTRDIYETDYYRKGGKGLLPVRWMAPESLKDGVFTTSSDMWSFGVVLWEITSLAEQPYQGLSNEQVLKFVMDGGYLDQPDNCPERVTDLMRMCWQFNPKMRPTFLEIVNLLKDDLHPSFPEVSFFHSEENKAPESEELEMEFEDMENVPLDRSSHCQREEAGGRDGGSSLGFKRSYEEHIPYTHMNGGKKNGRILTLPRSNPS
Trk A, sequence (P04629 33-796): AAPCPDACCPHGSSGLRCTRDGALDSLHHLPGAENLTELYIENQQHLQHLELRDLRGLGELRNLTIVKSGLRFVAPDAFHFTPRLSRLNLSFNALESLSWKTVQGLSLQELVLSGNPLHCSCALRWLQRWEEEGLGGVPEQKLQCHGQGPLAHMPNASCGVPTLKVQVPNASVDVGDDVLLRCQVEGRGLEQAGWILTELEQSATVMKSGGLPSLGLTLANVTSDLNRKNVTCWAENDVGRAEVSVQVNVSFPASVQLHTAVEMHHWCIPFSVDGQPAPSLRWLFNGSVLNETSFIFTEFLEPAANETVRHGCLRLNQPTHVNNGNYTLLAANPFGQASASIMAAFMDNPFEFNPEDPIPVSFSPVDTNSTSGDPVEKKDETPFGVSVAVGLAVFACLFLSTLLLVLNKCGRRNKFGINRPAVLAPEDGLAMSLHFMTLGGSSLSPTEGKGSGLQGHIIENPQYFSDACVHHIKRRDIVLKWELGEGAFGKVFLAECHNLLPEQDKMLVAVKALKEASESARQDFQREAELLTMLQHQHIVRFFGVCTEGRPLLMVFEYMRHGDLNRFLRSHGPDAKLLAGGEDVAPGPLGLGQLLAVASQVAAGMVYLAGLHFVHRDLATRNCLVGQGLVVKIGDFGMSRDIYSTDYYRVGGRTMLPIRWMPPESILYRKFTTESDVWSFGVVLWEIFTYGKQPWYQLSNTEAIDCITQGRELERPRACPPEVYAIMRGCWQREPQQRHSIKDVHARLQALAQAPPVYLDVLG
Trk C, sequence (Q16288 32-839): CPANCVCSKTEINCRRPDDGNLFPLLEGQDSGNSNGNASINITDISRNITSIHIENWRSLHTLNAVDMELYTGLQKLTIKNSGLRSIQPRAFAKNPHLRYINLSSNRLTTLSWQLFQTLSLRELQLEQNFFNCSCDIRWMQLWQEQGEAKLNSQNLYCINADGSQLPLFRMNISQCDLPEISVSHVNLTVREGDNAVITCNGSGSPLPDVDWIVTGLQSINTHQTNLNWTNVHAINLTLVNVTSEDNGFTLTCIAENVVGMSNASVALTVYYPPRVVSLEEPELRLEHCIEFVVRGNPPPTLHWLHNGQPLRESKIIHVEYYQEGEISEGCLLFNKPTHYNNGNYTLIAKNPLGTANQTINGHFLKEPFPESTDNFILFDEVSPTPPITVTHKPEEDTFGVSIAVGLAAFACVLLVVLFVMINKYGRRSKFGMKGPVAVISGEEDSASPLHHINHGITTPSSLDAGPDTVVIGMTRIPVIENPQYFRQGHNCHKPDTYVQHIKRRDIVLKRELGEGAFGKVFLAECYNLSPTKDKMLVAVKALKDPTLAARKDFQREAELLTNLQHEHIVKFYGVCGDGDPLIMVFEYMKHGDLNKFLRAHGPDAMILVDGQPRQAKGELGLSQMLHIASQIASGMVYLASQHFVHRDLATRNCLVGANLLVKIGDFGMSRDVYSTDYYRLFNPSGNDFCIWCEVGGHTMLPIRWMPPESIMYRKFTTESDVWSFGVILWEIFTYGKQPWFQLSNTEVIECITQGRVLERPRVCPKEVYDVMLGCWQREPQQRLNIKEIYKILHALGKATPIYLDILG
Trk B, sequence (Q16620 32-822): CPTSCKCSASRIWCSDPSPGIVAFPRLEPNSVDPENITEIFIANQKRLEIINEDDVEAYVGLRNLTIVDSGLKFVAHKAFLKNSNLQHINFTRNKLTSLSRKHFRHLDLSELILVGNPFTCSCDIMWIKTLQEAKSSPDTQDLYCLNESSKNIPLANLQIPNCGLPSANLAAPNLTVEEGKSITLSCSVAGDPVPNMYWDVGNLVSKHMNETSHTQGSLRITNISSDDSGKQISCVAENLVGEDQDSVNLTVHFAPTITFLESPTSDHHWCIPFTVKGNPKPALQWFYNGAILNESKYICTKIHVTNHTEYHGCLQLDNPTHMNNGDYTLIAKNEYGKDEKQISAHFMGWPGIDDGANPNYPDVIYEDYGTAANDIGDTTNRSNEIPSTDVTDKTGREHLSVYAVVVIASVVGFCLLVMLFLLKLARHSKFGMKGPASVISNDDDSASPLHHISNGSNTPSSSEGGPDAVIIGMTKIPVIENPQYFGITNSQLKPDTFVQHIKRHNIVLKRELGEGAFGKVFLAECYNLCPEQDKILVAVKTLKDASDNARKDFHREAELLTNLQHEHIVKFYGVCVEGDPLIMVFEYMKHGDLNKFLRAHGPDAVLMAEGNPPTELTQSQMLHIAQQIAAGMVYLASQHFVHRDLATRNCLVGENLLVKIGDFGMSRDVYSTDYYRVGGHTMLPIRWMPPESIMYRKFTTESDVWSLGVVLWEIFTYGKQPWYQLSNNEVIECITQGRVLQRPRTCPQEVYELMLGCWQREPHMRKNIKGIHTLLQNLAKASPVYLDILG

| SMILES | inhibition at 0.1 µM [1] | Levels of phosphorylated AKT in treated cells (pAKT/actin) ([4]; 0.1 nM compound) | p-AKT relative to levels with 0.1 nM compound ([4]; 0.1 nM) | Normalized phosphorylated AKT (relative to actin) levels relative to 0.1 nM compound treatment ([4]; 0.1 nM) | Levels of phosphorylated AKT in treated cells (pAKT/actin) ([4]; 1 nM compound) | p-AKT relative to levels with 0.1 nM compound ([4]; 1 nM) | Normalized phosphorylated AKT (relative to actin) levels relative to 0.1 nM compound treatment ([4]; 1 nM) | Levels of phosphorylated AKT in treated cells (pAKT/actin) ([4]; 10 nM compound) | p-AKT relative to levels with 0.1 nM compound ([4]; 10 nM) | Normalized phosphorylated AKT (relative to actin) levels relative to 0.1 nM compound treatment ([4]; 10 nM) | Levels of phosphorylated AKT in treated cells (pAKT/actin) ([4]; 100 nM compound) | p-AKT relative to levels with 0.1 nM compound ([4]; 100 nM) | Normalized phosphorylated AKT (relative to actin) levels relative to 0.1 nM compound treatment ([4]; 100 nM) | inhibition at 0.03 µM [5, 7] | inhibition at 0.03 µM [5, 8] | inhibition at 0.03 µM [5, 9] | inhibition at 0.03 µM [6, 7] | inhibition at 0.03 µM [6, 8] | inhibition at 0.03 µM [6, 9] | % Inh @ 30 nM (N1) ([5]; N1) | also measured |
| --- | --- | --- | --- | --- | --- | --- | --- | --- | --- | --- | --- | --- | --- | --- | --- | --- | --- | --- | --- | --- | --- |
| O=C(C1CCCN1c1nc2c(c(Nc3cc(C4CCCCC4)[nH]n3)n1)CCC2)N1CCCCC1 (stereo not drawn) [Compound 113b, (1-(4-(5-cyclohexyl-1H-pyrazol-3-ylamino)-6,7-dihydro-5H-cyclopenta[d]pyrimidin-2-yl)pyrrolidin-2-yl)(piperidin-1-yl)methanone] | 40 to 59% | – | – | – | – | – | – | – | – | – | – | – | – | – | – | – | – | – | – | – | % Enzyme Inhibition @ 100 nM Trk B [2]: +++ (High (60% or higher inhibition, +++)); inhibition at 0.1 µM ([3]; read-out: % Enzyme Inhibition @ 100 nM Trk C): > 60% |
| CC(C)c1cc(Nc2nc(N3CC(O)CC3C(=O)N3CCCCC3)nc3c2CCC3)n[nH]1 (stereo not drawn) [Compound 107b, (4-hydroxy-1-(4-(5-isopropyl-1H-pyrazol-3-ylamino)-6,7-dihydro-5H-cyclopenta[d]pyrimidin-2-yl)pyrrolidin-2-yl)(piperidin-1-yl)methanone] | < 39% | – | – | – | – | – | – | – | – | – | – | – | – | – | – | – | – | – | – | – | inhibition at 0.1 µM ([2]; read-out: % Enzyme Inhibition @ 100 nM Trk B): < 39%; % Enzyme Inhibition @ 100 nM Trk C [3]: + (Low (39% or lower inhibition, +)) |
| O=C(Nc1ccc(F)nc1)C1CCCN1c1nc2c(c(Nc3cc(C4CC4)[nH]n3)n1)CCC2 (single isomer, unassigned) [Compound 2a, 1-(4-(5-cyclopropyl-1H-pyrazol-3-ylamino)-6,7-dihydro-5H-cyclopenta[d]pyrimidin-2-yl)-N-(6-fluoropyridin-3-yl)pyrrolidine-2-carboxamide] | – | 1.70 | 1.0 | 1.0 | 1.78 | 1.0 | 1.0 | 1.81 | 1.1 | 1.1 | 1.72 | 1.0 | 1.0 | -12% | 18% | 3% | 0% | 10% | 5% | – | – |
| O=C(Nc1ccc(F)nc1)C1CCCN1c1nc2c(c(Nc3cc(C4CCCC4)[nH]n3)n1)CCC2 (single isomer, unassigned) [Compound 4a, 1-(4-(3-cyclopentyl-1H-pyrazol-5-ylamino)-6,7-dihydro-5H-cyclopenta[d]pyrimidin-2-yl)-N-(6-fluoropyridin-3-yl)pyrrolidine-2-carboxamide] | – | 2.38 | 1.0 | 1.0 | 1.64 | 0.7 | 0.7 | 1.76 | 0.7 | 0.7 | 1.47 | 0.6 | 0.6 | – | – | – | – | – | – | 4% | % Inh @ 30 nM (N2) ([5]; N2): 17%; % Inh @ 30 nM Avg ([5]; average): 10%; % Inh @ 30 nM (N1) ([6]; N1): −14%; % Inh @ 30 nM (N2) ([6]; N2): −2%; % Inh @ 30 nM Avg ([6]; average): −8% |
| O=C(Nc1ccc(F)nc1)C1C(O)CCN1c1nc2c(c(Nc3cc(C4CC4)[nH]n3)n1)CCC2 (single isomer, unassigned) [Compound 11b, 1-(4-(5-cyclopropyl-1H-pyrazol-3-ylamino)-6,7-dihydro-5H-cyclopenta[d]pyrimidin-2-yl)-N-(6-fluoropyridin-3-yl)-3-hydroxypyrrolidine-2-carboxamide] | – | 1.55 | 1.0 | 1.0 | 1.76 | 1.1 | 1.1 | 1.43 | 0.9 | 0.9 | 0.33 | 0.2 | 0.2 | – | – | – | – | – | – | 22% | % Inh @ 30 nM (N2) ([5]; N2): 11%; % Inh @ 30 nM Avg ([5]; average): 17%; % Inh @ 30 nM (N1) ([6]; N1): −2%; % Inh @ 30 nM (N2) ([6]; N2): 9%; % Inh @ 30 nM Avg ([6]; average): 3% |
| CC(C)c1cc(Nc2nc(N3CCCC3C(=O)Nc3ccc(F)nc3)nc3c2CCCC3)n[nH]1 (single isomer, unassigned) [Compound 13a, N-(6-fluoropyridin-3-yl)-1-(4-(5-isopropyl-1H-pyrazol-3-ylamino)-5,6,7,8-tetrahydroquinazolin-2-yl)pyrrolidine-2-carboxamide] | – | 0.51 | 1.0 | 1.0 | 0.54 | 1.1 | 1.1 | 0.45 | 0.9 | 0.9 | 0.80 | 1.6 | 1.6 | 10% | 34% | 22% | 4% | -1% | 2% | – | – |
